We go through 5 compounds from patent EP4793267A1, “CARBONATE CONTAINING LIPID COMPOUNDS AND COMPOSITIONS FOR INTRACELLULAR DELIVERY OF THERAPEUTIC AGENTS” (ModernaTX, Inc., priority 2019, dated 2021).

The subject of series [1] is hepatocyte protein expression (hEPO). The experiment in a line: Expression of hEPO induced by LNPs comprising the lipid and hEPO mRNA in mice. In kind it is in vivo. Conditions: LNP with DSPC, cholesterol, PEG-1, mRNA encoding hEPO, CD-1 mice; for hEPO AUC: intravenous; for Mean 6 hr hEPO Concentration (mIU/mL): serum, 6 h after intravenous injection. How it is done: (§1) To assess potency of expression and metabolic stability of lipids of the disclosure the hepatocyte protein expression (hEPO) following administration of a nanoparticle of the disclosure (e.g., a loaded LNP) to mice was measured.
(§2) Lipid nanoparticles (LNPs) including DSPC as a phospholipid, cholesterol as a structural lipid, PEG-1 as a PEG lipid, a compound according to Formula (A), (A1), (A2), (A3), (B), (1), (I'), (I-X), (I-Y), (I-Ya) (IA), (Ia), (Ib), (Ic), (Id), (Ie), (If), (Ig), (II), (IIa), or (IIb), and an mRNA encoding hEPO were intravenously administered to CD-1 mice. The concentration of hEPO in serum was tested at 6 h after injection. […] Table 2. Expression of hEPO induced by administration of LNPs comprising lipids of the disclosure in mice and residual lipid levels in the liver.

Series [2] in a line: Residual parent lipid levels in the liver after LNP administration to mice. In kind it is in vivo. Conditions: 24 h after intravenous LNP administration, CD-1 mice. The method, then: as §1, §2

Each structure is given as a SMILES string.

For `CCCCCCCCCOC(=O)OCCCCCCN(CCO)CCCCCCCC(=O)OC(CCCCCCCC)CCCCCCCC` [Compound 6, Heptadecan-9-yl 8-((2-hydroxyethyl)(6-(((nonyloxy)carbonyl)oxy)hexyl)amino)octanoate], in series [1], the “hEPO AUC” value is 8.19E+06 and the “Mean 6 hr hEPO Concentration (mIU/mL)” value is 509181.4 mIU/mL. In addition, in series [2], the “Parent Lipid Remaining (nmol/g liver tissue) at 24 h” value is listed as 3 ± 1 nmol/g liver tissue.
The corresponding values for `CCCCCCCCC(CCCCCCCC)OC(=O)CCCCCCCN(CCO)CCCCCCOC(=O)OCCC(CCCCC)CCCCC` [Compound 64, Heptadecan-9-yl 8-((2-hydroxyethyl)(6-((((3-pentyloctyl)oxy)carbonyl)oxy)hexyl)amino)octanoate] are 1.11E+07, 735556.2 mIU/mL and 72 ± 17 nmol/g liver tissue.
The corresponding values for `CCCCCCCCC(CCCCCCCC)OC(=O)CCCCCCCN(CCCCCCOC(=O)OCCC(CCCCCC)CCCCCC)CCCNc1c(NC)c(=O)c1=O` [Compound 65, Heptadecan-9-yl 8-((6-((((3-hexylnonyl)oxy)carbonyl)oxy)hexyl)(3-((2-(methylamino)-3,4-dioxocyclobut-1-en-1-yl)amino)propyl)amino)octanoate] are 7.76E+06, 521341.6 mIU/mL and 364 ± 58 nmol/g liver tissue.
As for `CCCCCCCCC(CCCCCCCC)OC(=O)CCCCCCCN(CCO)CCCCCCOC(=O)OCCC(CCCCCC)CCCCCC` [Compound 66, Heptadecan-9-yl 8-((6-((((3-hexylnonyl)oxy)carbonyl)oxy)hexyl)(2-hydroxyethyl)amino)octanoate], in series [1], the “hEPO AUC” value is on record as 9.77E+06 and the “Mean 6 hr hEPO Concentration (mIU/mL)” value stood at 641899.1 mIU/mL. Moreover, in series [2], the “Parent Lipid Remaining (nmol/g liver tissue) at 24 h” value is given as 67 ± 8 nmol/g liver tissue.
The corresponding values for `CCCCCCCCC(CCCCCCCC)OC(=O)CCCCCCCN(CCCCCCOC(=O)OCCC(CCCCC)CCCCC)CCCNc1c(NC)c(=O)c1=O` [Compound 67, Heptadecan-9-yl 8-((3-((2-(methylamino)-3,4-dioxocyclobut-1-en-1-yl)amino)propyl)(6-((((3-pentyloctyl)oxy)carbonyl)oxy)hexyl)amino)octanoate] are 1.31E+07, 891982.2 mIU/mL and 94 ± 15 nmol/g liver tissue.
